Tested on: HEK293E cells
Test: Stable cell lines, IgG batch titer by ELISA (Example 5)
Assay type: cell-based, Human
Settings: 4 mmol/l final VPA; stable mass culture; 5 days after VPA addition
Method: 20 million suspension-adapted HEK293E cells were resuspended in 1 ml of Ex-Cell 293 HEK 293 serum-free medium with 4 mmol/l L-glutamine (Cat. No. 14571C-1000M; Lot No. 6A0093; SAFC Biosciences, Lenexa, Kans., USA, “Ex-Cell” medium; note: “Ex-Cell” medium-as used herein-refers to a medium comprising 4 mmol/l L-glutamine) in a 50-ml filter tube each (TPP AG, Trasadingen, Switzerland; Cat. No. 87050, Lot 20050174). Then 50 μg plasmid DNA at a concentration of 1 μg/μl was added in each tube with the following composition 5% (2.5 μg) p-LC (SEQ ID NO: 1) 5% (2.5 μg) p-HC (SEQ ID NO: 3) 90% (45 μg) p-puro (SEQ ID NO: 13). Plasmid p-LC comprises the genetic information for the production of the light chain of an IgG antibody, plasmid p-HC comprises the genetic information for the production of the heavy chain of an IgG antibody, plasmid p-puro comprises the genetic information for the enzyme puromycin-N-acetyl-transferase, which is encoded by the pac gene, the puromycin resistance gene. […] In short, Goat anti-human kappa light chain IgG (Biosource) was used for coating the ELISA-plates, and with AP-conjugated goat anti-human gamma chain IgG (Biosource) the synthesized IgG1 was detected. […] Absorption was measured at 405 nm against 490 nm using a microplate reader (SPECTRAmaxTM340; Molecular Devices, Palo Alto, Calif., USA).

CCCC(CCC)C(=O)O [VPA, valproic acid]
Batch titer HEK293E: 47.8 ± 4.8 mg/L

Reference: US20090023186A1, “USE OF VALPROIC ACID FOR ENHANCING PRODUCTION OF RECOMBINANT PROTEINS IN MAMMALIAN CELLS” (EXCELLGENE SA, priority 2007, published 2009)
